{"source": "patent US12521409B2", "about": "“Cognition” (priority 2023, dated 2026)", "key": {"TG2576 mice [1]": {"system": "TG2576 mice", "assay": "Plasma glutamate and glutamine by LC-MS in TG2576 mice on TAG-supplemented diet (Example 1B)", "conditions": "mouse, in vivo"}, "TG2576 mice [2]": {"system": "TG2576 mice", "assay": "UDP N-acetyl glucosamine in brain tissue of TG2576 mice on TAG-supplemented diet, LC-MS/MS (Example 2B)", "assay_type": "in vivo, mouse", "protocol": "After 6 weeks brains were excised and bisected in the sagittal plane. The hemi-brains were stored frozen (−80° C.) then thawed, weighed and homogenized in 10 volumes of MeOH/MeCN/H2O (50%/30%/20%, v/v/v). Homogenates were centrifuged at 5000 rpm for 30 min. The supernatant was passed through 1 kDa MW centrifugal filters then evaporated and resuspended in the HPLC mobile phase. UDP N-acetyl glucosamine was run on a mixed-mode hydrophilic HPLC column (150 mm×4.6 mm id, Primesep N, by SIELC), with guard under a linear gradient of 80% acetonitrile and 10 mM ammonium formate pH 4.3 to 10% MeCN and 10 mM ammonium formate over 9 min, then return to starting conditions over 1 min. UDP N-acetyl glucosamine in brain extracts was quantified against commercial standard UDP N-acetyl glucosamine detected by mass spectrometry (MS-MS) in negative ion mode, scanning for m/z 606 and identification of major collision fragments m/z 385 and 403. UDP levels were corrected for brain mass. The effect of diet was calculated using 1-tailed t-test."}, "TG2576 mice [3]": {"system": "TG2576 mice", "assay": "Morris water maze, spatial memory in TG2576 mice (Example 3B)", "assay_type": "in vivo, mouse", "conditions": "TAG diet", "description": "The Morris water maze (MWM) has been used to measure spatial memory deficit in TG2576 mice. Mice are placed in a tub of water and containing a submerged platform. The amount of time required for a mouse to swim to the platform is referred to as the maze “escape time”. There are two testing stages in the water maze: 1. VISIBLE STAGE, in which the position of the platform is made visible by a marker pole attached to the platform, and 2. HIDDEN STAGE where the marker pole is removed and the water made opaque by the addition of white paint. Compared to wild type siblings, older TG2576 mice show increased latency to escape time.\nThe maze consisted of a 715 mm diameter tub filled to a depth of 70 mm. For VISIBLE STAGE testing, mice were placed in the water maze and the time they took to reach the platform was recorded with a stop watch. This testing was carried out 8 times per day for 3 days, during which the platform was moved to various positions around the maze. The walls of the maze were inscribed with 4 distinct shapes that were provided as spatial cues for learning. The HIDDEN STAGE testing was carried out for 7 days, 4 times per day. The position of the platform was fixed, but mice were placed in the maze at different positions for each test.\n[…].\nAs subjects learned to navigate and find the hidden platform, their escape time was reduced. […]"}}, "note": "“Also recorded” adds a separate entry of the source."}
{"substance": "tetra-acetyl glucosamine [TAG]", "values": [{"measurement": "Plasma concentration of glutamate", "setting": "TG2576 mice [1]", "result": "1.05 ± 0.094", "unit": "RU/ml"}, {"measurement": "Plasma concentration of glutamine", "setting": "TG2576 mice [1]", "result": "6.77 ± 1.05", "unit": "RU/ml"}, {"measurement": "Plasma glutamate level compared to control mice (in words)", "setting": "TG2576 mice [1]", "result": "significantly lower; also recorded: reduced"}, {"measurement": "Plasma glutamine level compared to control mice (in words)", "setting": "TG2576 mice [1]", "result": "trend of increased"}, {"measurement": "UDP N-acetyl glucosamine in brain", "setting": "TG2576 mice [2]; TG2576 mice, 0.45% (w/w) TAG diet for 6 weeks, n = 5, p=0.037 vs control diet", "result": "28.3 ± 2.13", "unit": "ng/mg brain fwt"}, {"measurement": "Increase in levels of UDP N-acetyl glucosamine in brain vs control diet", "setting": "TG2576 mice [2]; TG2576 mice, 6 weeks of TAG-supplemented diet", "result": 40, "unit": "%"}, {"measurement": "UDP N-acetyl glucosamine in brain tissue compared to control (in words)", "setting": "TG2576 mice [2]; mice models of AD fed a diet supplemented with TAG", "result": "increased"}, {"measurement": "Effect on latency to escape time / spatial working memory in Morris water maze (in words)", "setting": "TG2576 mice [3]; after 7 days", "result": "decreased; also recorded: significantly improved"}, {"measurement": "Mean escape time ± SE", "setting": "TG2576 mice [3]; water maze after 7 days, n = 8, in s (unit assumed)", "result": "9.31 ± 0.80"}]}
